From publication PMC5577105, “A New Chimeric Natriuretic Peptide, CNAAC, for the Treatment of Left Ventricular Dysfunction after Myocardial Infarction” (Scientific Reports, 2017)

Key:
[1] = test system: myocardial infarction rats (left anterior descending coronary artery ligation); assay: Cardiac hemodynamics after myocardial infarction; type: in vivo, rat; details: MI rats, NP 20 nmol/kg i.p. every 2 days for 4 weeks, anesthetized, LV catheter, mean ± SEM, n = 6; for +dp/dtmax / −dp/dtmax: in mmHg/s
Description: (§1) The Sham and MI animal model were established as described by Johns TN et al.[24], [25] […] The chest was closed immediately. Only a thoracotomy and closure were performed in the sham group. From the day of surgery, 0.85% NaCl or NPs (20 nmol/kg) were administered to these groups (i.p), one injection every two days and lasted for four weeks. Four weeks later, the cardiac function was measured by Doppler echocardiography under anesthesia with pentobarbital sodium (40 mg/kg i.p.). A 12 MHz linear probe (Vevo2100, VisualSonics, Inc., CAN) was used to perform the transthoracic echocardiography. Left ventricular (LV) ejection fraction (EF), LV fraction shortening (FS), LV end diastolic diameter (LVEDd), and left ventricular end systolic diameter (LVESd) were measured. All examinations were performed in a blinded state.
(§2) The day after echocardiography was performed; rats in each group were weighed and anesthetized via a peritoneal injection of pentobarbital sodium (40 mg/kg i.p.). Supplemental doses of sodium pentobarbital were given when needed to maintain uniform anesthesia. A micro catheter was inserted into the left ventricle through the right […], and left ventricular systolic pressure (LVSP), left ventricular end diastolic pressure (LVEDP), and ± dp/dtmax were recorded by the BL-420F BioData Acquisition & Analysis Systems (TME Technology Co, Ltd, Chengdu, China). At the end of the experiment, blood was sampled and the following parameters were recorded: heart weight (HW), left ventricle weight (LVW), and lung weight (LW).

[2] = test system: myocardial infarction rats (left anterior descending coronary artery ligation); assay: Serum humoral factors by ELISA after myocardial infarction; type: in vivo; details: NP 20 nmol/kg i.p. every 2 days for 4 weeks, rat ELISA, n = 6
Description: as §1, with “0.85% NaCl; 20 nmol/kg·2d; n = 6). The Sham” for “The Sham”, “blinded state. Blood samples were centrifuged (4000 rpm, 15 min) and the serum was separated. Serum BNP, Ang II, ALD, ET-1, cGMP levels were detected with rat ELISA kits (Lianshuo, Shanghai, China).” for “blinded state.”

[3] = test system: myocardial infarction rats (left anterior descending coronary artery ligation); assay: Tissue weights / cardiac hypertrophy after myocardial infarction; type: in vivo, rat; details: MI rats, NP 20 nmol/kg i.p. every 2 days for 4 weeks; mean ± SEM, n = 6
Description: as §1, §2

[4] = rat, in vivo, iv
Description: To determine the metabolic status of NPs in circulation, blood was collected from rats after a bolus injection of NPs. Rats were anesthetized with pentobarbital sodium (40 mg/kg i.p). One microcatheter was inserted into the left jugular vein to administer NPs, and another one was inserted into the right carotid artery to collect blood. After the surgery was completed, rats were allowed to stabilize for 15 min. Human ANP, CNP, VNP, or CNAAC at a concentration of 40 nmol/kg was administered in a bolus fashion (0.1 ml). Blood (0.5 ml) was sampled 5, 10, 20, and 30 min after the bolus injection. The samples from the plasma were analyzed using LT-20AT High-Performance-Liquid-Chromatography (HPLC) (Shimadzu, Tokyo, Japan). A linear gradient (Buffer A: acetonitrile with 0.05% trifluoroacetic acid; Buffer B: double distilled water with 0.05% trifluoroacetic acid)[36] was used for both analyses to separate peptides on an Inertsil OSD-3 (250 mm × 4.6 mm, 5 µm) chromatographic column (Shimadzu, Tokyo, Japan) and a Water Quatro-premier tandem quadrupole mass spectrometry and Alliance 2695 chromatographic system (Waters, Milford, Massachusetts, USA). Peak areas have been calculated with the Masslynx 4.1 software from Waters. […] Each experiment was conducted in duplicate, whereby duplicates are defined as two different vials.

[5] = design: method as in PMID 18205700; details: in circulation; cited from earlier work

Substance | Heart rate [1] [bpm] | LVEDP [1] [mm Hg] | LVSP [1] [mm Hg] | +dp/dtmax [1] | −dp/dtmax [1] | serum level of Ang II, change vs. MI group [2] | serum level of ET-1, change vs. MI group [2] | serum level of cGMP, change vs. MI group [2] | BW (body weight) [3] [g] | HW (heart weight) [3] [mg] | LVW (left ventricular weight) [3] [mg] | LW (lung weight) [3] [mg] | serum level of ALD, change vs. MI group [2] | NP remaining at 10 min [4] [%] | NP remaining at 20 min [4] | NP remaining at 30 min [4] | circulating half-life [5]
C-type natriuretic peptide [CNP] | 443 ± 21 | 6.5 ± 1.5 | 122.7 ± 4.8 | 4025 ± 289 | 3917 ± 250 | decreased | decreased | increased | 347 ± 10 | 1072 ± 84 | 492 ± 24 | 2190 ± 149 |  |  |  |  | 
atrial natriuretic peptide [ANP] | 437 ± 15 | 7.2 ± 1.8 | 112.5 ± 3.9 | 3651 ± 320 | 3424 ± 453 | decreased | decreased | increased | 362 ± 8 | 1010 ± 39 | 492 ± 24 | 2094 ± 188 | decreased | 32.7 | Less than 10% | completely degraded | 
brain natriuretic peptide [BNP] |  |  |  |  |  |  |  |  |  |  |  |  |  |  |  |  | approximately 23 min
